Reference: ChEMBL document CHEMBL3045941, “-Methyl as a bioisostere for the oxygen link between the aromatic rings of aryloxyphenoxypropionate herbicides” (Bioorg Med Chem Lett, 1997)
Calls of active or inactive are those of the source. The rule behind the calls is not given here.

Columns and labels:
[1] = tested on: Zea mays; assay: Phytotoxicity against Zea mays (maize) plant at two to four-leaf growth stage at <2 g/ha measured after 13 days under green house conditions; type: organism-based; settings: in vivo, 312 h
[2] = tested on: Oryza sativa; assay: Phytotoxicity against Oryza sativa (rice) plant at two to four-leaf growth stage at 100 g/ha measured after 13 days under green house conditions; type: organism-based; settings: in vivo, 312 h
[3] = tested on: Zea mays; assay: Phytotoxicity against Zea mays (maize) plant at two to four-leaf growth stage at 100 g/ha measured after 13 days under green house conditions; type: organism-based; settings: in vivo, 312 h
[4] = tested on: Avena fatua; assay: Post-emergent herbicidal activity against Avena fatua at <2 g/ha measured after 13 days under green house conditions; type: functional, organism-based
[5] = tested on: Triticum aestivum; assay: Phytotoxicity against Triticum aestivum (wheat) at two to four-leaf growth stage at 100 g/ha measured after 13 days under green house conditions; type: organism-based; settings: in vivo, 312 h
[6] = tested on: Setaria viridis; assay: Post-emergent herbicidal activity against Setaria viridis (green foxtail) at <2 g/ha measured after 13 days under green house conditions; type: functional, organism-based
[7] = tested on: Sorghum halepense; assay: Post-emergent herbicidal activity against Sorghum halepense (Johnson grass) at 100 g/ha measured after 13 days under green house conditions; type: functional
[8] = tested on: Sorghum halepense; assay: Post-emergent herbicidal activity against Sorghum halepense (Johnson grass) at <2 g/ha measured after 13 days under green house conditions; type: functional, organism-based
[9] = tested on: Echinochloa crus-galli; assay: Post-emergent herbicidal activity against Echinochloa crus-galli (barnyard grass) at <2 g/ha measured after 13 days under green house conditions; type: functional, organism-based
[10] = tested on: Avena fatua; assay: Post-emergent herbicidal activity against Avena fatua at 100 g/ha measured after 13 days under green house conditions; type: functional
[11] = tested on: Triticum aestivum; assay: Phytotoxicity against Triticum aestivum (wheat) at two to four-leaf growth stage at <2 g/ha measured after 13 days under green house conditions; type: organism-based; settings: in vivo, 312 h
[12] = tested on: Oryza sativa; assay: Phytotoxicity against Oryza sativa (rice) plant at two to four-leaf growth stage at <2 g/ha measured after 13 days under green house conditions; type: organism-based; settings: in vivo, 312 h
[13] = tested on: Echinochloa crus-galli; assay: Post-emergent herbicidal activity against Echinochloa crus-galli (barnyard grass) at 100 g/ha measured after 13 days under green house conditions; type: functional
[14] = tested on: Setaria viridis; assay: Post-emergent herbicidal activity against Setaria viridis (green foxtail) at 100 g/ha measured after 13 days under green house conditions; type: functional
[15] = tested on: Setaria viridis; assay: Post-emergent herbicidal activity against Setaria viridis (green foxtail) at 50 g/ha measured after 13 days under green house conditions; type: functional
[16] = tested on: Oryza sativa; assay: Phytotoxicity against Oryza sativa (rice) plant at two to four-leaf growth stage at 12.5 g/ha measured after 13 days under green house conditions; type: organism-based; settings: in vivo, 312 h
[17] = tested on: Sorghum halepense; assay: Post-emergent herbicidal activity against Sorghum halepense (Johnson grass) at 50 g/ha measured after 13 days under green house conditions; type: functional
[18] = tested on: Avena fatua; assay: Post-emergent herbicidal activity against Avena fatua at 50 g/ha measured after 13 days under green house conditions; type: functional
[19] = tested on: Oryza sativa; assay: Phytotoxicity against Oryza sativa (rice) plant at two to four-leaf growth stage at 50 g/ha measured after 13 days under green house conditions; type: organism-based; settings: in vivo, 312 h
[20] = target: Acetyl-CoA carboxylase (Hordeum vulgare) (UniProt Q3V4F7+Q3V4I7+Q947J4+Q947J5+Q40010+Q5S741+Q5S747); assay: Inhibition of acetyl-CoA carboxylase in Hordeum vulgare (barley) leaves; type: protein assay
[21] = tested on: Echinochloa crus-galli; assay: Post-emergent herbicidal activity against Echinochloa crus-galli (barnyard grass) at 12.5 g/ha measured after 13 days under green house conditions; type: functional
[22] = tested on: Triticum aestivum; assay: Phytotoxicity against Triticum aestivum (wheat) at two to four-leaf growth stage at 50 g/ha measured after 13 days under green house conditions; type: organism-based; settings: in vivo, 312 h
[23] = tested on: Zea mays; assay: Phytotoxicity against Zea mays (maize) plant at two to four-leaf growth stage at 12.5 g/ha measured after 13 days under green house conditions; type: organism-based; settings: in vivo, 312 h
[24] = tested on: Sorghum halepense; assay: Post-emergent herbicidal activity against Sorghum halepense (Johnson grass) at 12.5 g/ha measured after 13 days under green house conditions; type: functional
[25] = tested on: Setaria viridis; assay: Post-emergent herbicidal activity against Setaria viridis (green foxtail) at 12.5 g/ha measured after 13 days under green house conditions; type: functional
[26] = tested on: Echinochloa crus-galli; assay: Post-emergent herbicidal activity against Echinochloa crus-galli (barnyard grass) at 50 g/ha measured after 13 days under green house conditions; type: functional
[27] = tested on: Triticum aestivum; assay: Phytotoxicity against Triticum aestivum (wheat) at two to four-leaf growth stage at 12.5 g/ha measured after 13 days under green house conditions; type: organism-based; settings: in vivo, 312 h
[28] = tested on: Avena fatua; assay: Post-emergent herbicidal activity against Avena fatua at 12.5 g/ha measured after 13 days under green house conditions; type: functional
[29] = tested on: Zea mays; assay: Phytotoxicity against Zea mays (maize) plant at two to four-leaf growth stage at 50 g/ha measured after 13 days under green house conditions; type: organism-based; settings: in vivo, 312 h
[30] = tested on: Avena fatua; assay: Post-emergent herbicidal activity against Avena fatua at 250 g/ha measured after 13 days under green house conditions; type: functional
[31] = tested on: Zea mays; assay: Phytotoxicity against Zea mays (maize) plant at two to four-leaf growth stage at 250 g/ha measured after 13 days under green house conditions; type: organism-based; settings: in vivo, 312 h
[32] = tested on: Triticum aestivum; assay: Phytotoxicity against Triticum aestivum (wheat) at two to four-leaf growth stage at 250 g/ha measured after 13 days under green house conditions; type: organism-based; settings: in vivo, 312 h
[33] = tested on: Echinochloa crus-galli; assay: Post-emergent herbicidal activity against Echinochloa crus-galli (barnyard grass) at 250 g/ha measured after 13 days under green house conditions; type: functional
[34] = tested on: Oryza sativa; assay: Phytotoxicity against Oryza sativa (rice) plant at two to four-leaf growth stage at 250 g/ha measured after 13 days under green house conditions; type: organism-based; settings: in vivo, 312 h
[35] = tested on: Setaria viridis; assay: Post-emergent herbicidal activity against Setaria viridis (green foxtail) at 250 g/ha measured after 13 days under green house conditions; type: functional
[36] = tested on: Sorghum halepense; assay: Post-emergent herbicidal activity against Sorghum halepense (Johnson grass) at 250 g/ha measured after 13 days under green house conditions; type: functional

| Compound | Activity [1] | Activity [4] | Activity [6] | Activity [8] | Activity [9] | Activity [11] | Activity [12] | Activity [30] [%] | Activity [31] [%] | Activity [32] [%] | Activity [33] [%] | Activity [34] [%] | Activity [35] [%] | Activity [36] [%] | further results |
| --- | --- | --- | --- | --- | --- | --- | --- | --- | --- | --- | --- | --- | --- | --- | --- |
| CCOC(=O)C(C)Oc1ccc(N(C)c2nc3ccccc3o2)cc1 (racemic) | Non-toxic | inactive | inactive | inactive | inactive | Non-toxic | Non-toxic | – | – | – | – | – | – | – | Activity [2]: 30%; Activity [3]: 100%; Activity [5]: 85%; Activity [7]: 100%; Activity [10]: 70%; Activity [13]: 100%; Activity [14]: 85% |
| CCOC(=O)C(C)Oc1ccc(N(C)c2ncc3cc(Cl)ccc3n2)cc1 (racemic) | Non-toxic | inactive | inactive | inactive | inactive | Non-toxic | Non-toxic | – | – | – | – | – | – | – | Activity [15]: 98%; Activity [16]: 0%; Activity [17]: 98%; Activity [18]: 15%; Activity [19]: 35%; Activity [20]: 1.5 µM; Activity [21]: 98%; Activity [22]: 65%; Activity [23]: 15%; Activity [24]: 65%; Activity [25]: 65%; Activity [26]: 85%; Activity [27]: 35%; Activity [28]: 0%; Activity [29]: 65% |
| COC(=O)C(C)Oc1ccc(N(C)c2ncc(Cl)cn2)cc1 (racemic) | Non-toxic | inactive | inactive | inactive | inactive | Non-toxic | Non-toxic | 85 | 85 | 85 | 100 | 70 | 85 | 85 | – |
| CCOC(=O)C(C)Oc1ccc(Oc2ncc(Cl)cn2)cc1 (racemic) | Non-toxic | inactive | inactive | inactive | inactive | Non-toxic | Non-toxic | 85 | 85 | 70 | 85 | 70 | 85 | 85 | – |
